Assay [1] has as its system picornaviruses (CVB1, HRV-A2, HRV-A23, EV-68). The experiment in a line: Anti-picornavirus cytopathic effect (CPE) reduction assay on HeLa H1 cells. The format is cell-based. The note with it: Enterovirus B, HeLa H1, 48 h, HeLa H1 cells, 48 h, category from averaging the EC50 values from four picornaviruses (CVB1, HRV-A2, HRV-A23, EV68); read-out: EC50 values of the compounds determined in the anti-picornavirus assay. The procedure: The antiviral activity of selected compounds was tested using a cytopathic effect (CPE) reduction assay on HeLa H1 cells (ATCC CRL-1958). Briefly, cells were seeded in 96-well dishes (2×10^4 cells/well) in DMEM medium (Life technologies) supplemented with 10% FBS and PenStrep solution (100 U/mL Penicillin and 100 μg/mL streptomycin) and incubated at 37° C., 5% CO2 ovemight. The next day, cells were pre-treated with serial dilutions of the compound in DMEM medium supplemented with 2% FBS and PenStrep for 2 h at 37° C., 5% CO2. Next, cells were infected with virus (CVB1, HRV-A2, HRV-A23, EV-68) at an multiplicity of infection (MOI) which results in a complete virus-induced CPE within 2 days in control wells (infected and vehicle-treated). After 48 h, supematants were aspirated and 50 μl/well of CellTiterBlue reagent (Promega) diluted 1:5 in DMEM+2% FBS, was added to the cells. Plates were returned to the incubator and allowed to develop for 1.5 h. After that, plates were equilibrated to RT and subsequently, fluorescence was recorded (Excitation wavelength: 560 nm; emission wavelength: 590 nm) using a SpectraMax M5 multimode plate reader. Viability of cells was calculated according to the formula: V=(RFUCpd−RFUVeh/(RFUM−RFUVeh), where RFUCpd refers to infected and compound-treated cells, RFUVeh to infected and vehicle-treated cells and RFUM to uninfected and vehicle treated cells. Half-maximal effective concentrations (EC50) were calculated by non-linear regression analysis using the drc package in R (R Development. Core Team, 2005). EC50 categories as presented in Table 2 were calculated by averaging the EC50 values from four picornaviruses (CVB1, HRV-A2, HRV-A23, EV68).

In the next assay the target is T1, PLA2G16 (Homo sapiens, UniProt P53816).
T1 construct: Hexa-His (N); made in house; host or cells: E. coli BL21(DE3)
T1 sequence (P53816 1-162): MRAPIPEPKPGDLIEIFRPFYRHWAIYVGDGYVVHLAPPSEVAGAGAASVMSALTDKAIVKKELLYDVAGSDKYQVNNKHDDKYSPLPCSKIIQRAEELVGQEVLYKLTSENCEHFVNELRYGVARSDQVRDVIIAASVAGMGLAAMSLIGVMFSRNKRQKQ
The experiment in a line: Enzyme activity assay for PLA2G16 (Red/Green BODIPY PC-A2 fluorescence). In kind it is biochemical. The note with it: His-tagged PLA2G16, 4 min pre-incubation, 2 nM to 50 μM; read-out: IC50 values of the compounds determined in the enzyme activity assay for PLA2G16. The essentials: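 N-His-tagged human PLA2G16 from E. coli, Ni-NTA purified. Pre-incubated 4 min with compound (2 nM–50 μM final) in pH 8.5 Tris/NaCl buffer with 5 mM glutathione, then BODIPY PC-A2 in DOPC/DOPG/cholesterol vesicles added. Fluorescence (ex 480/em 530 nm) increase over 10 min taken as activity; IC50 by non-linear regression.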

With `O=C(COCC1CCCCC1)C(=O)NCC1CC1` [FP 129, 3-(Cyclohexylmethoxy)-N-(cyclopropylmethyl)-2-oxopropanamide], the EC50 in assay [1] is over 10000 nM. Moreover, the IC50 on PLA2G16 is under 1000 nM.
On to `CC(NC(=O)Cc1ccccc1)C(=O)C(=O)NCC1CC1` (stereo not shown) [FP 167, N-(Cyclopropylmethyl)-2-oxo-3-(2-phenylacetamido)butanamide], for which, in assay [1], the half-maximal effective concentration (EC50) is over 10000 nM. The IC50 at PLA2G16 was under 1000 nM.
For the compound `CC(OC1CCCCC1)C(=O)C(=O)NCC1CC1` (stereo not shown) [FP 120, 3-(Cyclohexyloxy)-N-(cyclopropylmethyl)-2-oxobutanamide], the EC50 in assay [1] is under 1000 nM. Besides, at PLA2G16, the IC50 is under 1000 nM.
Regarding `CC(C)[C@H](C(=O)C(=O)NCC1CC1)N(C=O)CC(C)(C)C` (single isomer, unassigned) [FP 32], the EC50 in assay [1] is over 10000 nM. Also, at PLA2G16, the IC50 is under 1000 nM.
The corresponding values for `CC(F)(F)CNC(=O)C(=O)[C@H]1CCC(=O)N1Cc1ccccc1` [FP 295, 2-[(2R)-1-Benzyl-5-oxopyrrolidin-2-yl]-N-(2,2-difluoropropyl)-2-oxoacetamide] are under 1000 nM and under 1000 nM.
On to `O=C(NC1CCN(S(=O)(=O)C2CCCC2)CC1)C(=O)[C@H]1CCC(=O)N1Cc1ccccc1` [FP 321, 2-[(2R)-1-Benzyl-5-oxopyrrolidin-2-yl]-N-[1-(cyclopentanesulfonyl)piperidin-4-yl]-2-oxoacetamide], for which the 50% effective concentration (EC50) in assay [1] was under 1000 nM. On PLA2G16, the IC50 was under 1000 nM.
`CCC(C(=O)C(=O)NCC1CCCCC1)N(C=O)C1CCCCC1` (stereo not shown) [FP 60, 3-(N-Cyclohexylformamido)-N-(cyclohexylmethyl)-2-oxopentanamide]: the concentration for a half-maximal effect (EC50) in assay [1] is 1000 to 10000 nM. For the same compound, at PLA2G16, the IC50 was under 1000 nM.
The corresponding values for `CCCC(NC(=O)CN(C)C)C(=O)C(=O)NCC1CCCCC1` (stereo not shown) [FP 207, N-(Cyclohexylmethyl)-3-[2-(dimethylamino)acetamido]-2-oxohexanamide] are 1000 to 10000 nM and under 1000 nM.
Consider `CCC(NC(=O)c1ccccc1)C(=O)C(=O)NCC1CC1` (stereo not shown) [FP 155, N-(Cyclopropylmethyl)-2-oxo-3-(phenylformamido)pentanamide], for which the EC50 in assay [1] lay within 1000 to 10000 nM. Besides, on PLA2G16, the half-inhibitory concentration (IC50) was under 1000 nM.
As to `O=C(NCC1CC1)C(=O)C1CCC(=O)N1Cc1ccc(Cl)cc1` (stereo not shown) [FP 203, 2-{1-[(4-Chlorophenyl)methyl]-5-oxopyrrolidin-2-yl}-N-(cyclopropylmethyl)-2-oxoacetamide], the EC50 in assay [1] is under 1000 nM. Besides, the IC50 on PLA2G16 was under 1000 nM.
With `O=C(NC1CC1)C(=O)C1CCC(=O)N1Cc1cccc(Cl)c1` (stereo not shown) [FP 240, 2-{1-[(3-Chlorophenyl)methyl]-5-oxopyrrolidin-2-yl}-N-cyclopropyl-2-oxoacetamide], the EC50 in assay [1] was 1000 to 10000 nM. In addition, on PLA2G16, the IC50 was under 1000 nM.
On to `CC(C)[C@@H](C(=O)C(=O)NCC1CC1)N(C=O)CC(C)(C)C` (single isomer, unassigned) [FP 33], for which, in assay [1], the EC50 fell in the range of 1000 to 10000 nM. The IC50 at PLA2G16 is under 1000 nM.
On to `COc1ccc(CNC(=O)C(=O)C(C)N(C=O)c2ccccc2OC)cc1` (stereo not shown) [FP 92, 3-[N-(2-Methoxyphenyl)formamido]-N-[(4-methoxyphenyl)methyl]-2-oxobutanamide], for which, in assay [1], the EC50 is 1000 to 10000 nM. In addition, at PLA2G16, the concentration for half-maximal inhibition (IC50) is under 1000 nM.
With `CC(C)C(=O)N1CC(NC(=O)C(=O)[C@H]2CCC(=O)N2Cc2ccccc2)C1` [FP 316, 2-[(2R)-1-Benzyl-5-oxopyrrolidin-2-yl]-N-[1-(2-methylpropanoyl)azetidin-3-yl]-2-oxoacetamide], the EC50 in assay [1] lay within 1000 to 10000 nM. For the same compound, the IC50 on PLA2G16 is under 1000 nM.
The corresponding values for `CC(C)CNC(=O)C(=O)C(C)N(C=O)CC(C)(C)C` (stereo not shown) [FP 45, 3-[N-(2,2-Dimethylpropyl)formamido]-N-(2-methylpropyl)-2-oxobutanamide] are under 1000 nM and under 1000 nM.
Take `CC(C)CC(C(=O)C(N)=O)N(C=O)Cc1ccccc1` (stereo not shown) [FP 199, 3-(N-Benzylformamido)-5-methyl-2-oxohexanamide]: in assay [1], the EC50 is over 10000 nM. At PLA2G16, the IC50 is under 1000 nM.
Regarding `CC(C(=O)C(=O)NCC1CCCCC1)N(C)C(=O)c1ccccc1` (stereo not shown) [FP 176, N-(Cyclohexylmethyl)-3-(N-methyl-1-phenylformamido)-2-oxobutanamide], the concentration giving a half-maximal response (EC50) in assay [1] is under 1000 nM. Also, at PLA2G16, the IC50 is under 1000 nM.
As to `Cc1ccccc1C(=O)NC(C)C(=O)C(=O)NCC1CC1` (stereo not shown) [FP 156, N-(Cyclopropylmethyl)-3-[(2-methylphenyl)formamido]-2-oxobutanamide], the EC50 in assay [1] lay within 1000 to 10000 nM. In addition, the IC50 at PLA2G16 is under 1000 nM.
The corresponding values for `CCC(NC(=O)c1ccncc1)C(=O)C(=O)NCC1CCCCC1` (stereo not shown) [FP 208, N-(Cyclohexylmethyl)-2-oxo-3-[(pyridin-4-yl)formamido]pentanamide] are over 10000 nM and under 1000 nM.
In the case of `C[C@H]1CC(=O)N(Cc2ccccc2)[C@@H]1C(=O)C(=O)NCC1CC1` (single isomer, unassigned) [FP 334], the EC50 in assay [1] is 1000 to 10000 nM. Besides, the IC50 on PLA2G16 is under 1000 nM.
With `CC(C)(C#N)CNC(=O)C(=O)[C@H]1CCC(=O)N1Cc1ccccc1` [FP 263, 2-[(2R)-1-Benzyl-5-oxopyrrolidin-2-yl]-N-(2-cyano-2,2-dimethylethyl)-2-oxoacetamide], the EC50 in assay [1] fell in the range of 1000 to 10000 nM. Also, the IC50 at PLA2G16 is under 1000 nM.
Consider `CC(C(=O)C(=O)NCC1CC1)N(C)C(=O)c1ccccc1` (stereo not shown) [FP 149, N-(Cyclopropylmethyl)-3-(N-methyl-1-phenylformamido)-2-oxobutanamide], for which the EC50 in assay [1] was 1000 to 10000 nM. Besides, the IC50 at PLA2G16 is under 1000 nM.
As for `CC(C(=O)C(=O)NCC1CC1)N(C=O)CC1CCCCC1` (stereo not shown) [FP 38, 3-[N-(Cyclohexylmethyl)formamido]-N-(cyclopropylmethyl)-2-oxobutanamide], the EC50 in assay [1] is under 1000 nM. Moreover, at PLA2G16, the IC50 is under 1000 nM.
As for `CC(NC(=O)c1ccccc1)C(=O)C(=O)NCC1CC1` (stereo not shown) [FP 178, N-(Cyclopropylmethyl)-2-oxo-3-(phenylformamido)butanamide], the EC50 in assay [1] was 1000 to 10000 nM. Besides, the IC50 at PLA2G16 was under 1000 nM.
The corresponding values for `O=C(NC1CCN(C(=O)NC2CCC2)CC1)C(=O)[C@H]1CCC(=O)N1Cc1ccccc1` [FP 324, 4-{2-[(2R)-1-Benzyl-5-oxopyrrolidin-2-yl]-2-oxoacetamido}-N-cyclobutylpiperidine-1-carboxamide] are under 1000 nM and under 1000 nM.
The corresponding values for `COc1ccccc1CNC(=O)C(=O)C(C)N(C=O)c1ccccc1OC` (stereo not shown) [FP 95, 3-[N-(2-Methoxyphenyl)formamido]-N-[(2-methoxyphenyl)methyl]-2-oxobutanamide] are 1000 to 10000 nM and under 1000 nM.
For the compound `CC(C(=O)C(=O)NCC1CCCC1)N(C=O)Cc1ccccc1` (stereo not shown) [FP 200, 3-(N-Benzylformamido)-N-(cyclopentylmethyl)-2-oxobutanamide], the concentration for a half-maximal effect (EC50) in assay [1] is under 1000 nM. Moreover, the IC50 on PLA2G16 was under 1000 nM.
Consider `CC(C)C(=O)NCCNC(=O)C(=O)[C@H]1CCC(=O)N1Cc1ccccc1` [FP 331, N-(2-{2-[(2R)-1-Benzyl-5-oxopyrrolidin-2-yl]-2-oxoacetamido}ethyl)-2-methyl-propanamide], for which, in assay [1], the EC50 was 1000 to 10000 nM. For the same compound, the IC50 at PLA2G16 is under 1000 nM.
Regarding `CC(C(=O)C(=O)NCC1CC1)N(C=O)CC1CCN(C(=O)c2ccccc2)CC1` (stereo not shown) [FP 80, 3-{N[(1-Benzoylpiperidin-4-yl)methyl]formamido}-N-(cyclopropylmethyl)-2-oxobutanamide], in assay [1], the EC50 was over 10000 nM. On PLA2G16, the IC50 fell in the range of 1000 to 10000 nM.

For the origin of these results see patent publication US11091428B2 (HAPLOGEN GMBH, priority 2016, dated 2021).
